According to patent publication US20230071637A1, “ORAL SUSPENSION WITH ANTIULCEROUS AND CHEMOPROTECTIVE EFFECT ON COLON CANCER AND PREPARATION METHOD THEREOF” (CENTRO NACIONAL DE INVESTIGACIONES CIENTIFICAS, priority 2020, published 2023):
Marks after values point to notes of the source that are not given here.

What was measured:
[1] = test system: ethanol-induced gastric ulcer; experiment: Ethanol-induced gastric ulcer in rats; format: in vivo, Sprague-Dawley rats; settings: 20 mg/kg oral single dose
Source text: The composition obtained in example 2 (FAMC) was subjected to a preclinical test with animals, in which its antiulcer effect was compared with the antiulcer effects of the registered fatty alcohol tablet (RAT), and suspensions of Fatty Alcohols (FA) and microcrystalline cellulose (MC), the latter two prepared with doses of FA and MC equal to the doses of both substances in the FAMC suspension. The experimental model used in this trial was the induction of gastric ulcers in rats by ethanol. […] After completing the quarantine, the animals were randomly distributed into 11 experimental groups (10 rats/group): a negative control that only received the vehicle and 10 groups in which the ulcer was induced with 60% ethanol, among these a control positive not treated with any antiulcer agent, 8 groups treated with the substances to be evaluated and a group treated with Omeprazole as a reference substance, as shown in Table 2. […] The use of a negative control group (not subjected to damage with ethanol), as well as a positive control group (subjected to damage and without treatment with any substance) made it possible to verify the functioning of the model and compare the anti-ulcer efficacy of the substances evaluated. […]

[2] = test system: gastric ulcer induced by pylorus ligation; experiment: Gastric ulcer induced by pylorus ligation in rats; format: in vivo, Sprague-Dawley rats
Source text: The composition obtained in example 2 (FAMC) was subjected to a preclinical test with animals, in which its antiulcer effect was compared with the antiulcer effects of the registered fatty alcohol tablet (RAT), and suspensions of Fatty Alcohols (FA) and microcrystalline cellulose (MC), the latter two prepared with doses of FA and MC equal to the doses of both substances in the FAMC suspension. The experimental model used in this test was that of the induction of gastric ulcers in rats by ligation of the pylorus, which is an acid-dependent model, unlike the model presented in the previous example. […] After completing the quarantine, the animals were randomly distributed into 11 experimental groups (10 rats/group): a negative control that only received the vehicle and 10 groups in which the ulcer was induced by ligation of the pylorus, among these a positive control not treated with any antiulcer agent, 8 groups treated with the substances to be evaluated and a group treated with Omeprazole as a reference substance, as shown in Table 3. The suspensions were administered as they are, while a suspension with 1% acacia gum was prepared to administer the tablet. The use of a negative control group (not subjected to pylorus ligation), as well as that of a positive control (subjected to damage and without treatment with any substance) made it possible to verify the functioning of the model and compare the anti-ulcer efficacy of the substances evaluated. All treatments were administered orally, as a single dose, by intragastric intubation. The selected doses are within the range of effective doses verified in previous preliminary experiences and the dose of omeprazole (20 mg/kg) has also been effective in this model. To induce gastric ulcer, the animals were fasted for 24 hours prior to the experiment, with free access to water. One hour after the administration of single doses of the vehicle, and the different treatments, the animals were anesthetized by intraperitoneal injection with sodium thiopental (35 mg/kg), a 2 cm-long incision was made in the anterior third of the line abdominal media, locating the stomach and ligating the pyloric sphincter with silk suture number 2 and the abdominal wall was sutured with silk thread. One hour later, the rats were sacrificed in a halothane atmosphere, the stomachs were removed and the gastric juice collected in test tubes. The latter was centrifuged at 3000 rpm, the supernatant separated and quantified in ml.

SMILES: COc1ccc2[nH]c([S+]([O-])Cc3ncc(C)c(OC)c3C)nc2c1 (stereo not drawn) [OMP, Omeprazole]
- Ulcer Index ([1]; 1 h before 60% ethanol, mean ± SEM): 35.97 ± 14.48*** mm^2
- I (%) inhibition of ulcer index ([1]; vs positive control): 78.8%
- Ulcer Index ([2]; 20 mg/kg oral single dose, 1 h before pylorus ligation, mean ± SEM): 3,9 ± 0,5 *** mm^2
- Gastric juice volume ([2]; 20 mg/kg oral single dose, supernatant of gastric juice 1 h after ligation, mean ± SEM): 3,4 ± 0,4 ml
- I (%) inhibition of ulcer index ([2]; 20 mg/kg oral single dose, vs positive control): 83,2%
- volume of gastric juice (effect in words) ([2]; pylorus ligation, doses tested, vs positive control): reduced
